Reference: US20250099407A1, “2-AMINO BENZOPHENONE DERIVATIVES FOR TARGETED FERROPTOSIS INDUCTION IN CANCER THERAPY” (INDIAN INSTITUTE OF TECHNOLOGY KANPUR, priority 2023, published 2025)

tested on: Huh-7 cells; assay: Cell viability, luminescence-based CellTiter-Glo assay, Huh-7 cells; conditions: Homo sapiens, Huh-7, Huh-7 cells, antiproliferative activity; read-out: EC50 in Huh-7 cells
Procedure: The viability of Huh-7 cells was recorded using a luminescence-based CellTiter-Glo® assay. The screening concentration of the molecules were 10 μM with or without Fer-1 (10 μM) in DMEM media (>0.1% DMSO as control).
Ferroptosis is a unique form of cell death mechanism mediated by the accumulation of lipid peroxides in cells which is distinct from healthy cells' apoptosis, a programmed […] route. We aimed to exploit the induction of ferroptosis in cancer cells using covalent small molecules as a potential strategy for cancer therapeutic development. […] We used various amide bond formation chemistry to construct the library members and these molecules are well characterized by various spectroscopic and mass spectrometry techniques. Once confirmed, these thiol reactive library members were screened in a cancer cell viability assay in combination with ferrostatin-1 (Fer-1), a ferroptosis inhibitor as depicted in FIG. 11. […] We have screened a total of ˜50 electrophilic small molecules to prevent the proliferation of hepatocellular carcinoma (Huh-7 cells) in combination with and without Fer-1. From our initial screening, we identified haloacetamides of 2-aminoalkylbenzophenone as potential ferroptosis inducers as depicted in FIG. 11.
The viability of screened cancer cells was recorded using a luminescence-based CellTiter-Glo® assay for the ATP quantification. The screening concentration of the molecule ranged from 100/10 μM to 45/4.5 nM with an 8-point-3-fold dilution series in DMEM media (>0.1% DMSO as control). Each experiment was conducted in more than two biological replicates with three technical replicates. The error bar is a representation of standard deviation among the technical replicates.
The viability of screened cancer cells was recorded using a luminescence-based CellTiter-Glo® assay for the ATP quantification. The screening concentration of IITK3002 ranged from 10 μM to 4.5 nM with an 8-point-3-fold dilution series in DMEM media (>0.1% DMSO as control). Each experiment was conducted in more than two biological replicates with three technical replicates. The error bar is a representation of standard deviation among the technical replicates. […]
a. Electrophilic Warhead Optimization: Once we identified 2-benzoylphenyl-a-haloacetamide as the lead scaffold, we have investigated the structure-activity-relationship analysis to precisely capture the effect of various chemical handles of the scaffold and use the knowledge to improve the overall potency and selectivity of this molecule to prevent cancer cell proliferation. First, we changed the haloacetamide electrophilic unit with various other electrophiles with a characteristic high, moderate, and weak reactivity with thiols when compared to chloroacetamide. Therefore, we opted vinylsulfonamide (highly reactivity), acrylamide (moderate reactivity), and phenoxyacetamides (weak reactivity warheads) for incorporation in the place of haloacetamide warhead of the top hit scaffold. Once synthesized, these molecules were evaluated to assess their antiproliferative potency against Huh-7 cells (Table 2). As expected, the introduction of weakly reactive electrophilic warheads, phenoxyactamides, completely lost the activity against Huh-7 cells. […] Perhaps, the secondary interactions of the electrophilic warhead with the target proteins might play additional roles. Therefore, we shifted our focus to optimize the rest of the core scaffold for further SAR analysis. b. Role of N-Substitutions: Next, we synthesized the NH-derivative of haloacetamides to capture the importance of N-alkylation on the activity of our hit molecule. […] Perhaps the hydrogen bonding induced planarity around the warhead influences the molecules' weakened potency. Conversely, the additional flexibility in the lead molecule (tertiary amide) might contribute to the strong antiproliferative activity of the hit molecule. […]

Row | EC50 [nM] | Compound
1 | 2 | CN(C(=O)CCl)c1ccccc1C(=O)c1ccc(-c2ccccc2)cc1 [IITK3055, N-(2-([1,1′-biphenyl]-4-carbonyl)phenyl)-2-chloro-N-methylacetamide]

same assay, conditions: Homo sapiens, Huh-7, Huh-7 cells, cell viability; read-out: EC50 Huh-7

Row | Compound | EC50 [nM]
2 | COc1ccc(-c2ccc(C(=O)c3ccccc3N(C)C(=O)CCl)cc2)cc1 [IITK3064, 2-chloro-N-(2-(4′-methoxy-[1,1′-biphenyl]-4-carbonyl)phenyl)-N-methylacetamide] | 19
3 | CN(C(=O)CCl)c1ccccc1C(=O)c1ccc(-c2ccc(F)cc2F)cc1 [IITK3066, 2-chloro-N-(2-(2′,4′-difluoro-[1,1′-biphenyl]-4-carbonyl)phenyl)-N-methylacetamide] | 8.83
4 | CN(C(=O)CBr)c1ccccc1C(=O)c1ccc(-c2ccc(F)cc2F)cc1 [IITK3067, 2-bromo-N-(2-(2′,4′-difluoro-[1,1′-biphenyl]-4-carbonyl)phenyl)-N-methylacetamide] | 12.1
5 | CN(C(=O)CBr)c1ccccc1C(=O)c1ccc(-c2cccc(Oc3ccccc3)c2)cc1 [IITK3063, 2-bromo-N-methyl-N-(2-(3′-phenoxy-[1,1′-biphenyl]-4-carbonyl)phenyl)acetamide] | 24.5
6 | COc1ccc(-c2ccc(C(=O)c3ccccc3N(C)C(=O)CBr)cc2)cc1 [IITK3065, 2-bromo-N-(2-(4′-methoxy-[1,1′-biphenyl]-4-carbonyl)phenyl)-N-methylacetamide] | 16
7 | CN(C(=O)CCl)c1ccc([N+](=O)[O-])cc1C(=O)c1ccccc1 [IITK3073, N-(2-benzoyl-4-nitrophenyl)-2-chloro-N-methylacetamide] | > 20000
8 | CN(C(=O)CCl)c1ccccc1C(=O)c1ccc(-c2ccccc2)cc1 [IITK3055, N-(2-([1,1′-biphenyl]-4-carbonyl)phenyl)-2-chloro-N-methylacetamide] | 2
9 | C#CCN(C(=O)COc1c(F)c(F)c(F)c(F)c1F)c1ccccc1C(=O)c1ccccc1 [IITK3031, N-(2-benzoylphenyl)-2-(perfluorophenoxy)-N-(prop-2-yn-1-yl)acetamide] | > 20000
10 | CN(C(=O)CBr)c1ccccc1C(=O)c1ccc(-c2ccccc2)cc1 [IITK3056, N-(2-([1,1′-biphenyl]-4-carbonyl)phenyl)-2-bromo-N-methylacetamide] | 13
11 | CN(C(=O)CBr)c1ccccc1C(=O)c1ccc(-c2ccc(C=O)cc2)cc1 [IITK3059, 2-bromo-N-(2-(4′-formyl-[1,1′-biphenyl]-4-carbonyl)phenyl)-N-methylacetamide] | 79
12 | CN(C(=O)COc1c(F)c(F)c(F)c(F)c1F)c1ccccc1C(=O)c1ccccc1 [IITK3007, N-(2-benzoylphenyl)-N-methyl-2-(perfluorophenoxy)acetamide] | > 20000
13 | CN(C(=O)CCl)c1ccccc1C(=O)c1ccc(-c2ccc(C#N)cc2)cc1 [IITK3060, 2-chloro-N-(2-(4′-cyano-[1,1′-biphenyl]-4-carbonyl)phenyl)-N-methylacetamide] | 26
14 | Cc1ccc(-c2ccc(C(=O)c3ccccc3N(C)C(=O)CBr)cc2)cc1 [IITK3057, 2-bromo-N-methyl-N-(2-(4′-methyl-[1,1′-biphenyl]-4-carbonyl)phenyl)acetamide] | 18

Further lines, results first:

Row | EC50 [nM] | Compound
15 | 3.5 | CN(C(=O)CBr)c1ccccc1C(=O)c1ccc(-c2cccc([N+](=O)[O-])c2)cc1 [IITK3069, 2-bromo-N-methyl-N-(2-(3′-nitro-[1,1′-biphenyl]-4-carbonyl)phenyl)acetamide]
16 | 8220 | C=CS(=O)(=O)N(C)c1ccccc1C(=O)c1ccc(-c2ccccc2)cc1 [IITK3070, N-(2-([1,1′-biphenyl]-4-carbonyl)phenyl)-N-methylethenesulfonamide]
17 | < 100 | C#CCN(C(=O)CBr)c1ccccc1C(=O)c1ccc(-c2ccccc2)cc1 [IITK3071, N-(2-([1,1′-biphenyl]-4-carbonyl)phenyl)-2-bromo-N-(prop-2-yn-1-yl)acetamide]
18 | > 138 | C#CCN(C(=O)CCl)c1ccccc1C(=O)c1ccc(-c2ccccc2)cc1 [IITK3072, N-(2-([1,1′-biphenyl]-4-carbonyl)phenyl)-2-chloro-N-(prop-2-yn-1-yl)acetamide]
19 | 3.06 | CN(C(=O)CCl)c1ccccc1C(=O)c1ccc(-c2cccc([N+](=O)[O-])c2)cc1 [IITK3068, 2-chloro-N-methyl-N-(2-(3′-nitro-[1,1′-biphenyl]-4-carbonyl)phenyl)acetamide]
